Measured values published in ChEMBL document CHEMBL1155092, “Antibacterial activity of labdane diterpenoids from Stemodia foliosa” (2008).
Values after ≈ are worked out from the molar mass of the structure shown. Active and inactive are the calls of the source. The calls are words filed in the database; no cut-off is given here.

Tests used:
[1] = tested on: Mycolicibacterium smegmatis; assay: Antimicrobial activity against Mycobacterium smegmatis; assay type: functional
Micrococcus luteus [2] = assay: Antimicrobial activity against Micrococcus luteus; assay type: functional
Mycolicibacterium phlei [3] = assay: Antimicrobial activity against Mycobacterium phlei; assay type: functional
Staphylococcus aureus [4] = assay: Antimicrobial activity against Staphylococcus aureus; assay type: functional
Bacillus anthracis [5] = assay: Antimicrobial activity against Bacillus anthracis; assay type: functional
Bacillus subtilis [6] = assay: Antimicrobial activity against Bacillus subtilis; assay type: functional
Bacillus cereus [7] = assay: Antimicrobial activity against Bacillus cereus; assay type: functional
Micrococcus luteus [8] = assay: Antimicrobial activity against Micrococcus luteus at 50 ug/ml; assay type: functional, organism-based
Bacillus subtilis [9] = assay: Antimicrobial activity against Bacillus subtilis at 50 ug/ml; assay type: functional, organism-based
Staphylococcus aureus [10] = assay: Antimicrobial activity against Staphylococcus aureus at 50 ug/ml; assay type: functional, organism-based
Bacillus anthracis [11] = assay: Antimicrobial activity against Bacillus anthracis at 50 ug/ml; assay type: functional, organism-based
[12] = tested on: Mycolicibacterium smegmatis; assay: Antimicrobial activity against Mycobacterium smegmatis at 50 ug/ml; assay type: functional, organism-based
Mycolicibacterium phlei [13] = assay: Antimicrobial activity against Mycobacterium phlei at 50 ug/ml; assay type: functional, organism-based
Bacillus cereus [14] = assay: Antimicrobial activity against Bacillus cereus at 50 ug/ml; assay type: functional, organism-based

Compound	MIC [1]	MIC (Micrococcus luteus [2])	MIC (Mycolicibacterium phlei [3])	MIC (Staphylococcus aureus [4])	MIC (Bacillus anthracis [5])	MIC (Bacillus subtilis [6])	MIC (Bacillus cereus [7])	Activity (Micrococcus luteus [8])	Activity (Bacillus subtilis [9])	Activity (Staphylococcus aureus [10])	Activity (Bacillus anthracis [11])	Activity [12]	Activity (Mycolicibacterium phlei [13])	Activity (Bacillus cereus [14])
C=C[C@@]1(C)CC[C@@H]2[C@@]3(C)CCCC(C)(C)[C@@H]3[C@@H](OC(=O)CC(=O)O)C[C@@]2(C)O1	7 µg/mL (≈ 17.8 µM)	17 µg/mL (≈ 43.3 µM)	9 µg/mL (≈ 22.9 µM)	15 µg/mL (≈ 38.2 µM)	20 µg/mL (≈ 51 µM)	15 µg/mL (≈ 38.2 µM)	15 µg/mL (≈ 38.2 µM)	–	–	–	–	–	–	–
CC[C@H]1OC(=O)[C@H](C)[C@@H](O[C@H]2C[C@@](C)(OC)[C@@H](O)[C@H](C)O2)[C@H](C)[C@@H](O[C@@H]2O[C@H](C)C[C@H](N(C)C)[C@H]2O)[C@](C)(OC)C[C@@H](C)C(=O)[C@H](C)[C@@H](O)[C@]1(C)O [CLARITHROMYCIN]	0.5 µg/mL (≈ 0.668 µM)	2 µg/mL (≈ 2.67 µM)	0.5 µg/mL (≈ 0.668 µM)	0.8 µg/mL (≈ 1.07 µM)	1.3 µg/mL (≈ 1.74 µM)	1.7 µg/mL (≈ 2.27 µM)	–	–	–	–	–	–	–	–
C=C[C@@]1(C)CC[C@@H]2[C@@]3(C)CCCC(C)(C)[C@@H]3[C@@H](OC(=O)CC(=O)OCCCC)C[C@@]2(C)O1	–	–	–	–	–	–	–	inactive	inactive	inactive	inactive	inactive	inactive	inactive
C=C[C@@]1(C)CC[C@@H]2[C@@]3(C)CCCC(C)(C)[C@@H]3[C@@H](OC(C)=O)C[C@@]2(C)O1	–	–	–	–	–	–	–	inactive	inactive	inactive	inactive	inactive	inactive	inactive
